Laboratory results as given in ChEMBL document CHEMBL2417379, “Anti-inflammatory and anti-apoptotic effects of (RS)-glucoraphanin bioactivated with myrosinase in murine sub-acute and acute MPTP-induced Parkinson's disease” (Bioorg Med Chem, 2013).
Calls of active or inactive are those of the source.

How the values were obtained:
Mus musculus [1] = test: Neurotoxicity in C57BL/6 mouse assessed as nitrotyrosine localization in substantia nigra pars compacta at 10 mg/kg, ip by immunohistochemistry; type: toxicity, organism-based; design: dose 10 mg/kg, route intraperitoneal; details: in vivo
Mus musculus [2] = test: Neurotoxicity in C57BL/6 mouse assessed as basal NGF expression in brain at 10 mg/kg, ip by immunohistochemistry; type: toxicity, organism-based; design: dose 10 mg/kg, route intraperitoneal; details: in vivo
Mus musculus [3] = test: Neurotoxicity in C57BL/6 mouse assessed as basal GAP-43 expression in brain at 10 mg/kg, ip by immunohistochemistry; type: toxicity, organism-based; design: dose 10 mg/kg, route intraperitoneal; details: in vivo
Mus musculus [4] = test: Antiinflammatory activity against C57BL/6 mouse sub-acute MPTP-induced parkinson's disease model assessed as reduction in cytosolic GFAP localization in brain at 10 mg/kg, ip administered for 1 week prior to MPTP challenge by immunohistochemistry relative to untreated control; type: functional, organism-based; design: dose 10 mg/kg
Mus musculus [5] = test: Toxicity in C57BL/6 mouse assessed as faster drop time at 10 mg/kg, ip by pole test; type: organism-based; design: dose 10 mg/kg, route intraperitoneal; details: in vivo
Mus musculus [6] = test: Neurotoxicity in C57BL/6 mouse assessed as Nrf2 localization in brain at 10 mg/kg, ip by immunohistochemistry; type: toxicity, organism-based; design: dose 10 mg/kg, route intraperitoneal; details: in vivo
Mus musculus [7] = test: Antiinflammatory activity against C57BL/6 mouse acute MPTP-induced parkinson's disease model assessed as reduction in cytosolic GFAP localization in brain at 10 mg/kg, ip administered for 1 week prior to MPTP challenge by immunohistochemistry relative to untreated control; type: functional, organism-based; design: dose 10 mg/kg
Mus musculus [8] = test: Toxicity in C57BL/6 mouse assessed as Bcl2 expression in brain at 10 mg/kg, ip measured after 8 days by immunohistochemistry; type: organism-based; design: dose 10 mg/kg, route intraperitoneal; details: in vivo, 192 h
Mus musculus [9] = test: Antiapoptotic activity against DA neurons in C57BL/6 mouse acute MPTP-induced parkinson's disease model assessed as reduction in Bax expression at 10 mg/kg, ip administered for 1 week prior to MPTP challenge measured after 8 days by immunohistochemistry relative to untreated control; type: functional, organism-based; design: dose 10 mg/kg
Mus musculus [10] = test: Antiapoptotic activity against DA neurons in C57BL/6 mouse sub-acute MPTP-induced parkinson's disease model assessed as increase in Bcl2 expression at 10 mg/kg, ip administered for 1 week prior to MPTP challenge measured after 8 days by immunohistochemistry relative to untreated control; type: functional, organism-based; design: dose 10 mg/kg
Mus musculus [11] = test: Antiapoptotic activity against DA neurons in C57BL/6 mouse sub-acute MPTP-induced parkinson's disease model assessed as reduction in Bax expression at 10 mg/kg, ip administered for 1 week prior to MPTP challenge measured after 8 days by immunohistochemistry relative to untreated control; type: functional, organism-based; design: dose 10 mg/kg
Mus musculus [12] = test: Antiapoptotic activity against DA neurons in C57BL/6 mouse acute MPTP-induced parkinson's disease model assessed as protection against neuronal functional disruption at 10 mg/kg, ip administered for 1 week prior to MPTP challenge by golgi staining-based microscopic analysis relative to untreated control; type: organism-based; design: dose 10 mg/kg
Mus musculus [13] = test: Toxicity in C57BL/6 mouse assessed as Bax expression in brain at 10 mg/kg, ip measured after 8 days by immunohistochemistry; type: organism-based; design: dose 10 mg/kg, route intraperitoneal; details: in vivo, 192 h
Mus musculus [14] = test: Neuroprotective activity in C57BL/6 mouse acute MPTP-induced parkinson's disease model assessed as increase in NGF expression in brain at 10 mg/kg, ip administered for 1 week prior to MPTP challenge by immunohistochemistry; type: functional, organism-based; design: dose 10 mg/kg
Mus musculus [15] = species on record: Mus musculus; test: Antiinflammatory activity against C57BL/6 mouse sub-acute MPTP-induced parkinson's disease model assessed as reduction in nitrotyrosine localization in substantia nigra pars compacta prior to MPTP challenge by immunohistochemistry relative to untreated control; type: functional, organism-based
Mus musculus [16] = test: Antiinflammatory activity against C57BL/6 mouse acute MPTP-induced parkinson's disease model assessed as increase in Nrf2 localization in brain at 10 mg/kg, ip administered for 1 week prior to MPTP challenge by immunohistochemistry relative to untreated control; type: functional, organism-based; design: dose 10 mg/kg
Mus musculus [17] = test: Neuroprotective activity in C57BL/6 mouse acute MPTP-induced parkinson's disease model assessed as increase in BDNF expression in brain at 10 mg/kg, ip administered for 1 week prior to MPTP challenge by immunohistochemistry; type: functional, organism-based; design: dose 10 mg/kg
Mus musculus [18] = test: Neurotoxicity in C57BL/6 mouse assessed as IL-1beta localization in brain at 10 mg/kg, ip measured after 8 days by immunohistochemistry; type: toxicity, organism-based; design: dose 10 mg/kg, route intraperitoneal; details: in vivo, 192 h
Mus musculus [19] = test: Toxicity in C57BL/6 mouse assessed as change in body weight at 10 mg/kg, ip; type: organism-based; design: dose 10 mg/kg, route intraperitoneal; details: in vivo
Mus musculus [20] = test: Neurotoxicity in C57BL/6 mouse assessed as TH protein expression in striatum at 10 mg/kg, ip measured after 8 days by immunohistochemistry; type: toxicity, organism-based; design: dose 10 mg/kg, route intraperitoneal; details: in vivo, 192 h
Mus musculus [21] = test: Antiinflammatory activity against C57BL/6 mouse sub-acute MPTP-induced parkinson's disease model assessed as reduction in IL-1beta localization in brain at 10 mg/kg, ip administered for 1 week prior to MPTP challenge measured after 8 days by immunohistochemistry relative to untreated control; type: functional, organism-based; design: dose 10 mg/kg
Mus musculus [22] = test: Neuroprotective activity in C57BL/6 mouse sub-acute MPTP-induced parkinson's disease model assessed as increase in BDNF expression in brain at 10 mg/kg, ip administered for 1 week prior to MPTP challenge by immunohistochemistry; type: functional, organism-based; design: dose 10 mg/kg
Mus musculus [23] = test: Neuroprotective activity in C57BL/6 mouse sub-acute MPTP-induced parkinson's disease model assessed as bewilderment at 10 mg/kg, ip administered for 1 week prior to MPTP challenge by pole test relative to untreated control; type: functional, organism-based; design: dose 10 mg/kg
Mus musculus [24] = test: Antiinflammatory activity against C57BL/6 mouse acute MPTP-induced parkinson's disease model assessed as reduction in IL-1beta localization in brain at 10 mg/kg, ip administered for 1 week prior to MPTP challenge measured after 8 days by immunohistochemistry relative to untreated control; type: functional, organism-based; design: dose 10 mg/kg
Mus musculus [25] = test: Antiinflammatory activity against C57BL/6 mouse sub-acute MPTP-induced parkinson's disease model assessed as increase in Nrf2 localization in brain at 10 mg/kg, ip administered for 1 week prior to MPTP challenge by immunohistochemistry relative to untreated control; type: functional, organism-based; design: dose 10 mg/kg
Mus musculus [26] = test: Neuroprotective activity in C57BL/6 mouse acute MPTP-induced parkinson's disease model assessed as increase in TH protein expression in striatum at 10 mg/kg, ip administered for 1 week prior to MPTP challenge measured after 8 days by immunohistochemistry relative to untreated control; type: functional, organism-based; design: dose 10 mg/kg
Mus musculus [27] = test: Antiparkinsonian activity in C57BL/6 mouse acute MPTP-induced parkinson's disease model assessed as reduction in MPTP-induced change in body weight at 10 mg/kg, ip administered for 1 week prior to MPTP challenge relative to control; type: functional, organism-based; design: dose 10 mg/kg
Mus musculus [28] = test: Neuroprotective activity in C57BL/6 mouse sub-acute MPTP-induced parkinson's disease model assessed as increase in GAP-43 expression in brain at 10 mg/kg, ip administered for 1 week prior to MPTP challenge by immunohistochemistry; type: functional, organism-based; design: dose 10 mg/kg
Mus musculus [29] = test: Neurotoxicity in C57BL/6 mouse assessed as reduction of DA transporter expression in substantia nigra at 10 mg/kg, ip by immunohistochemistry; type: toxicity, organism-based; design: dose 10 mg/kg, route intraperitoneal; details: in vivo
Mus musculus [30] = test: Neuroprotective activity in C57BL/6 mouse acute MPTP-induced Parkinson's disease model assessed as increase in GAP-43 expression in brain at 10 mg/kg, ip administered for 1 week prior to MPTP challenge by immunohistochemistry; type: functional, organism-based; design: dose 10 mg/kg
Mus musculus [31] = test: Neuroprotective activity in C57BL/6 mouse acute MPTP-induced parkinson's disease model assessed as preservation of neurological behavioural changes at 10 mg/kg, ip administered for 1 week prior to MPTP challenge measured for 3 mins by open field test relative to vehicle-treated control; type: functional, organism-based; design: dose 10 mg/kg
Mus musculus [32] = test: Neuroprotective activity in C57BL/6 mouse sub-acute MPTP-induced parkinson's disease model assessed as increase in TH protein expression in striatum at 10 mg/kg, ip administered for 1 week prior to MPTP challenge measured after 8 days by immunohistochemistry relative to untreated control; type: functional, organism-based; design: dose 10 mg/kg
Mus musculus [33] = test: Neuroprotective activity in C57BL/6 mouse sub-acute MPTP-induced parkinson's disease model assessed as latency time at 10 mg/kg, ip administered for 1 week prior to MPTP challenge by open field test relative to vehicle-treated control; type: functional; details: route intraperitoneal
Mus musculus [34] = test: Antiinflammatory activity against C57BL/6 mouse acute MPTP-induced parkinson's disease model assessed as reduction in nitrotyrosine localization in substantia nigra pars compacta at 10 mg/kg, ip administered for 1 week prior to MPTP challenge by immunohistochemistry relative to untreated control; type: functional, organism-based; design: dose 10 mg/kg
Mus musculus [35] = test: Antiapoptotic activity against C57BL/6 mouse sub-acute MPTP-induced parkinson's disease model assessed as protection against neuronal functional disruption at 10 mg/kg, ip administered for 1 week prior to MPTP challenge by golgi staining-based microscopic analysis relative to untreated control; type: organism-based; design: dose 10 mg/kg
Mus musculus [36] = test: Neuroprotective activity in C57BL/6 mouse sub-acute MPTP-induced parkinson's disease model assessed as increase in NGF expression in brain at 10 mg/kg, ip administered for 1 week prior to MPTP challenge by immunohistochemistry; type: functional, organism-based; design: dose 10 mg/kg
Mus musculus [37] = test: Neuroprotective activity in C57BL/6 mouse acute MPTP-induced parkinson's disease model assessed as prevention of loss of DA transporter expression in substantia nigra at 10 mg/kg, ip administered for 1 week prior to MPTP challenge by immunohistochemistry; type: functional, organism-based; design: dose 10 mg/kg
Mus musculus [38] = test: Neuroprotective activity in C57BL/6 mouse sub-acute MPTP-induced parkinson's disease model assessed as prevention of loss of DA transporter expression in substantia nigra at 10 mg/kg, ip administered for 1 week prior to MPTP challenge by immunohistochemistry; type: functional, organism-based; design: dose 10 mg/kg
Mus musculus [39] = test: Antiapoptotic activity against DA neurons in C57BL/6 mouse acute MPTP-induced parkinson's disease model assessed as increase in Bcl2 expression at 10 mg/kg, ip administered for 1 week prior to MPTP challenge measured after 8 days by immunohistochemistry relative to untreated control; type: functional, organism-based; design: dose 10 mg/kg
Mus musculus [40] = test: Neurotoxicity in C57BL/6 mouse assessed as cytosolic GFAP localization in brain at 10 mg/kg, ip by immunohistochemistry; type: toxicity, organism-based; design: dose 10 mg/kg, route intraperitoneal; details: in vivo
Mus musculus [41] = test: Antiparkinsonian activity in C57BL/6 mouse sub-acute MPTP-induced parkinson's disease model assessed as reduction in MPTP-induced change in body weight at 10 mg/kg, ip administered for 1 week prior to MPTP challenge relative to control; type: functional, organism-based; design: dose 10 mg/kg

C[S@@+]([O-])CCCC/C(=N/OS(=O)(=O)O)S[C@@H]1O[C@H](CO)[C@@H](O)[C@H](O)[C@H]1O (racemic)
Non-toxic: Activity (Mus musculus [1]) | Activity (Mus musculus [2]) | Activity (Mus musculus [3]) | Activity (Mus musculus [5]) | Activity (Mus musculus [6]) | Activity (Mus musculus [8]) | Activity (Mus musculus [13]) | Activity (Mus musculus [18]) | Activity (Mus musculus [19]) | Activity (Mus musculus [20]) | Activity (Mus musculus [29]) | Activity (Mus musculus [40])
0 min: Time (Mus musculus [33])
active: Activity (Mus musculus [4]) | Activity (Mus musculus [7]) | Activity (Mus musculus [9]) | Activity (Mus musculus [10]) | Activity (Mus musculus [11]) | Activity (Mus musculus [12]) | Activity (Mus musculus [14]) | Activity (Mus musculus [15]) | Activity (Mus musculus [16]) | Activity (Mus musculus [17]) | Activity (Mus musculus [21]) | Activity (Mus musculus [22]) | Activity (Mus musculus [23]) | Activity (Mus musculus [24]) | Activity (Mus musculus [25]) | Activity (Mus musculus [26]) | Activity (Mus musculus [27]) | Activity (Mus musculus [28]) | Activity (Mus musculus [30]) | Activity (Mus musculus [31]) | Activity (Mus musculus [32]) | Activity (Mus musculus [34]) | Activity (Mus musculus [35]) | Activity (Mus musculus [36]) | Activity (Mus musculus [37]) | Activity (Mus musculus [38]) | Activity (Mus musculus [39]) | Activity (Mus musculus [41])
